Laboratory results published in ChEMBL document CHEMBL1821675, “The selective P-TEFb inhibitor CAN508 targets angiogenesis” (Eur J Med Chem, 2011).
The source made the active and inactive calls. No cut-off for these calls is given here.

How the values were obtained:
UO-31 = test: Cytotoxicity against human UO31 cells; type: functional
CCRF-CEM = test: Cytotoxicity against human CCRF-CEM cells; type: functional
[1] = biological target: Mitogen-activated protein kinase 15 (Homo sapiens) (UniProt Q8TD08); test: Inhibition of ERK8 assessed as residual activity at 10 uM by radioactivity assay in presence of 5 uM ATP
[2] = biological target: CDK9/cyclin T1 (Homo sapiens) (UniProt O60563+P50750); test: Inhibition of CDK9/cyclin T assessed as residual activity at 10 uM by radioactivity assay in presence of 50 uM ATP; type: protein-complex assay
[3] = biological target: Serine/threonine-protein kinase MARK1 (Homo sapiens) (UniProt Q9P0L2); test: Inhibition of MARK1 assessed as residual activity at 10 uM by radioactivity assay in presence of 20 uM ATP
DU-145 = test: Decrease in VEGF expression in human DU145 cells at >10 uM after 24 hrs by sandwich ELISA; type: functional, cell-based
SK-MEL-28 = test: Cytotoxicity against human SK-MEL-28 cells; type: functional
EKVX = test: Cytotoxicity against human EKVX cells; type: functional
SF-268 = test: Cytotoxicity against human SF268 cells; type: functional
[4] = biological target: Insulin receptor-related protein (Homo sapiens) (UniProt P14616); test: Inhibition of IRR assessed as residual activity at 10 uM by radioactivity assay in presence of 5 uM ATP
HUVEC = test: Antiproliferative activity against HUVEC cells assessed as decrease in cell viability at >50 uM within 72 hrs by calcein AM staining-based fluorescence assay; conditions: human
NCI/ADR-RES = test: Cytotoxicity against human NCI/ADR-RES cells; type: functional
[5] = biological target: RAC-alpha serine/threonine-protein kinase (Homo sapiens) (UniProt P31749); test: Inhibition of PKBalpha assessed as residual activity at 10 uM by radioactivity assay in presence of 5 uM ATP
MCF7 = test: Inhibition of RNA synthesis in human MCF7 cells assessed as decrease in [3H] Uridine incorporation after 2 hrs by scintillation counting; type: functional, cell-based
[6] = biological target: Aurora kinase B (Homo sapiens) (UniProt Q96GD4); test: Inhibition of Aurora B assessed as residual activity at 10 uM by radioactivity assay in presence of 20 uM ATP
[7] = biological target: Dual specificity mitogen-activated protein kinase kinase 1 (Homo sapiens) (UniProt Q02750); test: Inhibition of MKK1 assessed as residual activity at 10 uM by radioactivity assay in presence of 5 uM ATP
[8] = biological target: High affinity nerve growth factor receptor (Homo sapiens) (UniProt P04629); test: Inhibition of TrkA assessed as residual activity at 10 uM by radioactivity assay in presence of 20 uM ATP
[9] = biological target: Mitogen-activated protein kinase kinase kinase 11 (Homo sapiens) (UniProt Q16584); test: Inhibition of MLK3 assessed as residual activity at 10 uM by radioactivity assay in presence of 20 uM ATP
Malme-3M = test: Cytotoxicity against human MALME-3M cells; type: functional
[10] = biological target: Mitogen-activated protein kinase 1 (Homo sapiens) (UniProt P28482); test: Inhibition of ERK2 assessed as residual activity at 10 uM by radioactivity assay in presence of 20 uM ATP
SR = test: Cytotoxicity against human SR cells; type: functional
A498 = test: Cytotoxicity against human A498 cells; type: functional
SK-MEL-5 = test: Cytotoxicity against human SK-MEL-5 cells; type: functional
UACC-257 = test: Cytotoxicity against human UACC257 cells; type: functional
[11] = biological target: Serine/threonine-protein kinase Nek6 (Homo sapiens) (UniProt Q9HC98); test: Inhibition of NEK6 assessed as residual activity at 10 uM by radioactivity assay in presence of 50 uM ATP
[12] = biological target: Serine/threonine-protein kinase pim-1 (Homo sapiens) (UniProt P11309); test: Inhibition of PIM1 assessed as residual activity at 10 uM by radioactivity assay in presence of 20 uM ATP
SW-620 = test: Cytotoxicity against human SW620 cells; type: functional
[13] = biological target: Serine/threonine-protein kinase 3 (Homo sapiens) (UniProt Q13188); test: Inhibition of MST2 assessed as residual activity at 10 uM by radioactivity assay in presence of 20 uM ATP
786-0 = test: Cytotoxicity against human 786-0 cells; type: functional
SK-OV-3 = test: Cytotoxicity against human SKOV3 cells; type: functional
[14] = biological target: Cyclin-dependent kinase 9 (Homo sapiens) (UniProt P50750); test: Inhibition of CDK9-catalyzed RNA polymerase 2 phosphorylation at Ser2 in human HMEC1 cells after 2 hrs by immunoblotting; type: cell-based
[15] = biological target: Cyclin-dependent kinase 7 (Homo sapiens) (UniProt P50613); test: Inhibition of CDK7-catalyzed RNA polymerase 2 phosphorylation at Ser5 in human MCF7 cells at 5 to 40 uM after 2 hrs by immunoblotting; type: cell-based
HCT-15 = test: Cytotoxicity against human HCT15 cells; type: functional
[16] = biological target: Ephrin type-A receptor 4 (Homo sapiens) (UniProt P54764); test: Inhibition of EPHA4 assessed as residual activity at 10 uM by radioactivity assay in presence of 50 uM ATP
[17] = biological target: Homeodomain-interacting protein kinase 1 (Homo sapiens) (UniProt Q86Z02); test: Inhibition of HIPK1 assessed as residual activity at 10 uM by radioactivity assay in presence of 20 uM ATP
[18] = biological target: Inhibitor of nuclear factor kappa-B kinase subunit epsilon (Homo sapiens) (UniProt Q14164); test: Inhibition of IKK-epsilon assessed as residual activity at 10 uM by radioactivity assay in presence of 50 uM ATP
[19] = biological target: Cyclin-dependent kinase 7 (Homo sapiens) (UniProt P50613); test: Inhibition of CDK7-catalyzed RNA polymerase 2 phosphorylation at Ser5 in human HMEC1 cells at 5 to 40 uM after 2 hrs by immunoblotting; type: cell-based
[20] = biological target: MAP kinase-activated protein kinase 3 (Homo sapiens) (UniProt Q16644); test: Inhibition of MAPKAP-K3 assessed as residual activity at 10 uM by radioactivity assay in presence of 20 uM ATP
[21] = biological target: Serine/threonine-protein kinase Chk1 (Homo sapiens) (UniProt O14757); test: Inhibition of CHK1 assessed as residual activity at 10 uM by radioactivity assay in presence of 20 uM ATP
[22] = biological target: Mitogen-activated protein kinase kinase kinase kinase 2 (Homo sapiens) (UniProt Q12851); test: Inhibition of GCK assessed as residual activity at 10 uM by radioactivity assay in presence of 20 uM ATP
T47D = test: Cytotoxicity against human T47D cells; type: functional
[23] = biological target: Mitogen-activated protein kinase 12 (Homo sapiens) (UniProt P53778); test: Inhibition of p38-gamma MAPK assessed as residual activity at 10 uM by radioactivity assay in presence of 5 uM ATP
Chain of Mitogen-activated protein kinase 12 (Homo sapiens) (P53778 whole entry): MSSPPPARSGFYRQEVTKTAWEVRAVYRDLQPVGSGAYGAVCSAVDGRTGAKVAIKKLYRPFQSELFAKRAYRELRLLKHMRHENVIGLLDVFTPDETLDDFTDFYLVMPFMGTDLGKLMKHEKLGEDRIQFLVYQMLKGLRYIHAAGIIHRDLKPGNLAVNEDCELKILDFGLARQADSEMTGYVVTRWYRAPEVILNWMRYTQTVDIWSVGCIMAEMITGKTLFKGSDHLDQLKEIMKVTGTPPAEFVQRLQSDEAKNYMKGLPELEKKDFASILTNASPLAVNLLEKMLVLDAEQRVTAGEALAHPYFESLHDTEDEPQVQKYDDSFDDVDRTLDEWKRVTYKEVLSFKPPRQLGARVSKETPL

Chain of Cyclin-dependent kinase 7 (Homo sapiens) (P50613 whole entry): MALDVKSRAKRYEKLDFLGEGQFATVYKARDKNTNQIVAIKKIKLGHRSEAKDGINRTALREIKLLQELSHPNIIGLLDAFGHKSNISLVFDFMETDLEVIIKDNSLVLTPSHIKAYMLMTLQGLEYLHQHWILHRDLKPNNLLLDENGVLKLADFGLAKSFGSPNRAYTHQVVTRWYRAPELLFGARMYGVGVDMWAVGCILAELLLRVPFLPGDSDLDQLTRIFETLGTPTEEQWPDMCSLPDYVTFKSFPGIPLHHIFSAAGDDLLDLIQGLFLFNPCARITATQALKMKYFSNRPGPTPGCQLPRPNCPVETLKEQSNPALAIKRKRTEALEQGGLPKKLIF
Chain of Inhibitor of nuclear factor kappa-B kinase subunit epsilon (Homo sapiens) (Q14164 whole entry): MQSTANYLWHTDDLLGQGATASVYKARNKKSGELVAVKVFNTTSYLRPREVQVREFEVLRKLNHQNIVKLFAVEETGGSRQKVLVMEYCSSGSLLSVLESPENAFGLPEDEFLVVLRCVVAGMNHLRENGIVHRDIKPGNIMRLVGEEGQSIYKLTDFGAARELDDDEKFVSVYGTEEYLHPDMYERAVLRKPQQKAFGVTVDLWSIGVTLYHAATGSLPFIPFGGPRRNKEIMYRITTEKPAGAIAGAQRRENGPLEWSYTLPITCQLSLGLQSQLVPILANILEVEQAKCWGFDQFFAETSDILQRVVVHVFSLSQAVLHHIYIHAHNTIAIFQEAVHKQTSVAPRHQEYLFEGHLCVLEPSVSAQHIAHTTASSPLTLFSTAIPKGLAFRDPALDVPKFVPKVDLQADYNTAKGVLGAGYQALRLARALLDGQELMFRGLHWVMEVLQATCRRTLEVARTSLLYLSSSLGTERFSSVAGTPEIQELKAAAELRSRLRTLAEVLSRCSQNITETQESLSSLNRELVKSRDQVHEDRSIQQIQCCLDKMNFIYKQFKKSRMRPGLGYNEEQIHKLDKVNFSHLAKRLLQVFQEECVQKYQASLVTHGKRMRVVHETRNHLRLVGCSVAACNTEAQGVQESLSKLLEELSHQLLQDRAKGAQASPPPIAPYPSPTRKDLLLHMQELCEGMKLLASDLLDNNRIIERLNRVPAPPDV
Chain of Ephrin type-A receptor 4 (Homo sapiens) (P54764 whole entry): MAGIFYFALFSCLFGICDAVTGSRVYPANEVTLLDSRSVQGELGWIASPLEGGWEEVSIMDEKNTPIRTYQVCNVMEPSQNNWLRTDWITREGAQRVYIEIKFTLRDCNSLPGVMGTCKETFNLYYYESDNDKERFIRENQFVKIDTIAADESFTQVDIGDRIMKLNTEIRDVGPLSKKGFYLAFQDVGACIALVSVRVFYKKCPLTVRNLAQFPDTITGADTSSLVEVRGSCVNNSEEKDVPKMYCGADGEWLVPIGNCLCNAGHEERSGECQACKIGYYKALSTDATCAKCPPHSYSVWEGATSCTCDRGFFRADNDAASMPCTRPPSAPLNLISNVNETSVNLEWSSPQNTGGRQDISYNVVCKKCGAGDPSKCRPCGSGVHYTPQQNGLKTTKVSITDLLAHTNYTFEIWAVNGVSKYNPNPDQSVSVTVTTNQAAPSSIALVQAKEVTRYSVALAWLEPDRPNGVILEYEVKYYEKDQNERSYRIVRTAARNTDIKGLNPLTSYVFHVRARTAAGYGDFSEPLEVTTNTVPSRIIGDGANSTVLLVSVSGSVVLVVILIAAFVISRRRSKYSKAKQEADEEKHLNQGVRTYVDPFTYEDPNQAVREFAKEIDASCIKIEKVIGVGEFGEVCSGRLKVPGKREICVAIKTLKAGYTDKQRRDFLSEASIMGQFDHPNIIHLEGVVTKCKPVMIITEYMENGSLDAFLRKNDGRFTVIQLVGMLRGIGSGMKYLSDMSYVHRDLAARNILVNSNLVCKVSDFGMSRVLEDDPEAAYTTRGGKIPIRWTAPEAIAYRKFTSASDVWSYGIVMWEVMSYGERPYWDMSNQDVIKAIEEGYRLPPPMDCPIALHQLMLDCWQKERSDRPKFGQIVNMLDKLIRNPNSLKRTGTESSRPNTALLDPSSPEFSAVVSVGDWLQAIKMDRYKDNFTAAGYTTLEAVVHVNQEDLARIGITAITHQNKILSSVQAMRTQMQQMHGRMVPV
Chain of Cyclin-dependent kinase 9 (Homo sapiens) (P50750 whole entry): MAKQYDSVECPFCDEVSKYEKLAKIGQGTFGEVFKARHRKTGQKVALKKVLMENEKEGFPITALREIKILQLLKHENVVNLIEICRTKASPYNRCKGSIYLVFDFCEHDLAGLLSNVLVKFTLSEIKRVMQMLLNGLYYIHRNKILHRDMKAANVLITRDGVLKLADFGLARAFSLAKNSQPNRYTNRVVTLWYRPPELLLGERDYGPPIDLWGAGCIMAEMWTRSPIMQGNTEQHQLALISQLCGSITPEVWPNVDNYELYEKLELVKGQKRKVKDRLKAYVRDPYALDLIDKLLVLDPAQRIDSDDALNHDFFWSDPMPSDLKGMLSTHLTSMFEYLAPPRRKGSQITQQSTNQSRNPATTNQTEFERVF
Chain of Homeodomain-interacting protein kinase 1 (Homo sapiens) (Q86Z02 whole entry, looked up): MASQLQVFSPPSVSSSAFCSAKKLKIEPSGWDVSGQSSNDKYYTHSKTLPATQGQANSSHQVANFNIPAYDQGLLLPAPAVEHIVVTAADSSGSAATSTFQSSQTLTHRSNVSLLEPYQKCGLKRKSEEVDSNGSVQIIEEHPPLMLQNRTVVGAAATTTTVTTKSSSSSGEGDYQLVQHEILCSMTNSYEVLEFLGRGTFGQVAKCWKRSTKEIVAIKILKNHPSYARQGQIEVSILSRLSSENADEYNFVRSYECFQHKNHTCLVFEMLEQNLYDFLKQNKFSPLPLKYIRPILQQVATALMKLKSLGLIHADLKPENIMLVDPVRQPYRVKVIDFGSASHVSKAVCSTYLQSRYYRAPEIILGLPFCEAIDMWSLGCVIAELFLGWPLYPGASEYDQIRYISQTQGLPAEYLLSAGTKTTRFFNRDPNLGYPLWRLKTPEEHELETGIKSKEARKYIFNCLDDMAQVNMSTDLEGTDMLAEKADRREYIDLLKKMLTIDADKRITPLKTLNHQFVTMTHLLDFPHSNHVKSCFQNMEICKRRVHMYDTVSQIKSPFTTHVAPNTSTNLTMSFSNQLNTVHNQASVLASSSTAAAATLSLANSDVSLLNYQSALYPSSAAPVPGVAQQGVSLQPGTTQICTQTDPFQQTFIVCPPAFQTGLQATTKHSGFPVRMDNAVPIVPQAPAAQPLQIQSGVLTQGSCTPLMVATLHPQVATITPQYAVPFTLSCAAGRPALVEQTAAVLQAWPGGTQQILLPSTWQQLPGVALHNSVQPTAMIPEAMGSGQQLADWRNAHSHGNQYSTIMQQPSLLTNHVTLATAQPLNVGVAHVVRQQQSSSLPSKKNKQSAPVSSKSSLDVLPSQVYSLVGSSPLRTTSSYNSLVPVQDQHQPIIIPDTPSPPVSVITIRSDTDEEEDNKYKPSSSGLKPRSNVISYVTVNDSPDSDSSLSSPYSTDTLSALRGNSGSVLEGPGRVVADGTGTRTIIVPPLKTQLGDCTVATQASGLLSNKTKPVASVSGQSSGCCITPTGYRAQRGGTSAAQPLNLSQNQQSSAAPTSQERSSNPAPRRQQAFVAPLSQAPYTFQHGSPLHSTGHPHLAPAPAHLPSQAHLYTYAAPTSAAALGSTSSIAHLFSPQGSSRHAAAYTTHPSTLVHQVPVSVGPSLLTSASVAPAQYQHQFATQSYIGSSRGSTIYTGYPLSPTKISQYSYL
Chain of MAP kinase-activated protein kinase 3 (Homo sapiens) (Q16644 whole entry, looked up): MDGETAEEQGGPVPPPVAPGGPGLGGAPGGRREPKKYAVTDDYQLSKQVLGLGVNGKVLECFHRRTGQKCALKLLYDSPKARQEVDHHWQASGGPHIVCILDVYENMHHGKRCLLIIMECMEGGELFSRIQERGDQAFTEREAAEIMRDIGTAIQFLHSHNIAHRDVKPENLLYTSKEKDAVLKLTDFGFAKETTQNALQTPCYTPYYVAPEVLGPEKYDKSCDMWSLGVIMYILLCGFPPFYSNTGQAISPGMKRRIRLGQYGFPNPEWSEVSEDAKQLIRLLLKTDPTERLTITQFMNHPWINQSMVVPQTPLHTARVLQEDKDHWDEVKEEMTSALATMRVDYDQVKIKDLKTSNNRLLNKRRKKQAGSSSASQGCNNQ
Chain of Serine/threonine-protein kinase pim-1 (Homo sapiens) (P11309 whole entry, looked up): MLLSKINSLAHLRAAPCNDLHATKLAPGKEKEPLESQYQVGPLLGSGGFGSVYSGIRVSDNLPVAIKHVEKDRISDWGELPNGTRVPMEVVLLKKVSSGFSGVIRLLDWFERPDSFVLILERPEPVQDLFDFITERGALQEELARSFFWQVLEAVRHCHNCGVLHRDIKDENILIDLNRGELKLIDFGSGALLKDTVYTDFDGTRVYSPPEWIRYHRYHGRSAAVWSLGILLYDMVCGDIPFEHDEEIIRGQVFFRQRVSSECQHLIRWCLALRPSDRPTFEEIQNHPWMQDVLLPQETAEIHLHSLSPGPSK
Chain of Serine/threonine-protein kinase Nek6 (Homo sapiens) (Q9HC98 whole entry): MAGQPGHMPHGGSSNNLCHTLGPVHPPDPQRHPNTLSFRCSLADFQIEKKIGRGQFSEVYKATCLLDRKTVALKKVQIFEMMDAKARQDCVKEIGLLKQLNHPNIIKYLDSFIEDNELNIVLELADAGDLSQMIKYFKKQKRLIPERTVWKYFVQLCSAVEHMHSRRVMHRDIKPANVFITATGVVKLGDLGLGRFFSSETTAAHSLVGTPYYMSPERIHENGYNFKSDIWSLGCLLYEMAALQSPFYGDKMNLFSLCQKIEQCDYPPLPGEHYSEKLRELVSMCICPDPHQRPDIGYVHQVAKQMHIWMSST

## Nc1n[nH]c(N)c1/N=N/c1ccc(O)cc1
UO-31
  GI50: 13.7 µM
CCRF-CEM
  GI50: 20 µM
[1]
  Activity: 17%
[2]
  Activity: 12%
[3]
  Activity: 72%
DU-145
  Activity: Active
SK-MEL-28
  GI50: 22.1 µM
EKVX
  GI50: 22 µM
SF-268
  GI50: 20.6 µM
[4]
  Activity: 29%
HUVEC
  Activity: Non-toxic
NCI/ADR-RES
  GI50: 22.5 µM
[5]
  Activity: 100%
MCF7
  IC50: 15 µM
[6]
  Activity: 46%
[7]
  Activity: 60%
[8]
  Activity: 98%
[9]
  Activity: 31%
Malme-3M
  GI50: 24.5 µM
[10]
  Activity: 106%
SR
  GI50: 10.3 µM
A498
  GI50: 18.2 µM
SK-MEL-5
  GI50: 13.9 µM
UACC-257
  GI50: 24.4 µM
[11]
  Activity: 114%
[12]
  Activity: 40%
SW-620
  GI50: 26.3 µM
[13]
  Activity: 57%
786-0
  GI50: 26.2 µM
SK-OV-3
  GI50: 49.2 µM
[14]
  inhibition: Dose-dependent effect
[15]
  inhibition: Active
HCT-15
  GI50: 24.2 µM
[16]
  Activity: 93%
[17]
  Activity: 106%
[18]
  Activity: 45%
[19]
  inhibition: Active
[20]
  Activity: 89%
[21]
  Activity: 98%
[22]
  Activity: 20%
T47D
  GI50: 14.2 µM
[23]
  Activity: 50%
